Experimental data from patent US4571403A, “Antianginal medicated compound” (Institut Organicheskoi Khimii Imeni N.D. Zelinskogo …, priority 1984, dated 1986).
“Also recorded” adds a separate entry of the source.

Legend:
[1] = test system: vessels of heart, kidney and limbs; assay: resistogram of vessels of heart, kidney and limbs; type: in vivo
Source text: To find out the participance of the vascular factor in redistribution of regional blood flow, resistogram of vessels of heart, kidney and limbs has been recorded. […] The effect of the preparation on the heart activity and basic characteristics of hemodynamics has been also studied.

[2] = test system: sympathetic nerves of heart and kidney; assay: tonic and reflectorial bioelectric activity in sympathetic nerves of heart and kidney; type: in vivo; details: cats
Source text: In experiments on anesthetized (urethane+chloralose) and immobilized (succinylcholine bromide) cats (14 tests) there has been studied the effect of the preparation in various doses on the tonic and reflectorial bioelectric activity in sympathetic nerves of heart and kidney. Somatosympathetic reflexes are caused by electric irritation of afferent A- and C- fibers of the tibial nerve.

[3] = test system: cardio-vascular effects; assay: overall cardiovascular effects / conclusions of the tests; details: in vivo
Source text: The results of the above-described tests allow the following conclusions characterizing the properties of the medicated compound according to the present invention.

[4] = test system: patients suffering from ischemic heart disease; assay: clinical test in patients with ischemic heart disease; type: in vivo, human patients
Description: There were studied 84 patients aged 29 to 77 (46 men and 38 women) suffering from ischemic heart disease.
The patients with ischemic heart disease were classified by stages: stage 1-18 persons, stage 2-40 persons, stage […] (according to L. I. Fogelson, 1972). In 46 patients there was the attendant hypertonic disease of the second stage.
The remoteness of the disease was varied from 6 months to 22 years. The preparation was administered perorally in doses of 0.6-0.9 g 3-4 times a day. The daily dose is 1.8-3.6 g. The treatment course was 7 to 60 days; after a 5-7 days' interval the treatment was resumed depending on its efficiency so that the total course duration was up to 6 months. The effectiveness of the treatment was evaluated by the dynamics of complaints, clinic chart, objective data of pulse and arterial pressure, electrocardiographic and biochemical characteristics.

[5] = test system: coronary blood flow; assay: rate of coronary blood flow and oxygen absorption by myocardium in anesthetized cats; type: in vivo
Description: At the same time, the content of oxyhemoglobin in the coronary venous blood is determined by the photometrical method and the absorption of oxygen by myocardium is calculated on the basis of the arterio-venous difference value.
The effect duration varies within the range of from 5 to 10 minutes. With increasing the preparation dose up to 500 mg/kg, the intensity and duration of the effect are increased reaching respectively 108±12% and 30-40 minutes.
Calculation of the amount of the heart-absorbed oxygen points to it explicit increase (29±2.3%).

[6] = test system: rats; assay: chronical toxicity in rats, intraperitoneal; type: in vivo
[7] = test system: ischemic zone of myocardium; assay: model of acute attack of stenocardia (Sekeresh's model) in anesthetized dogs; type: in vivo
Source text: The effect of the preparation on the functional state of the ischemic center has been studied in experiments on dogs under the conditions of general anesthesia. The effects caused by the preparation have been studied on the model of an acute attack of stenocardia (Sekeresh's model). The functional state of the ischemic focus has been assessed through analysis of epicardial heart electrograms in the ischemic zone and adjacent regions. The stenocardiac attack is caused by way of a partial occlusion of the coronary artery (left descending artery) and including a high rhythm of heart contractions (up to 250 beats/minute) by way of electrical stimulation of the heart auricula. Under these conditions there take place changes of the heart electrograms typical for acute ischemia of myocardium.

[8] = test system: systemic arterial pressure; assay: effect on arterial pressure in cats and dogs; type: in vivo
Description: The effect of the preparation on the arterial pressure has been also studied. […] The average value of the maximum drop of pressure during the first 10 minutes after the administration is 8-10% of the initial level. In doses of 500 mg/kg the preparation causes hypotensive reaction with the intensity of 15-18% of the initial level at the duration of the effect of 20-30 minutes.

[9] = acute toxicity on mice; type: in vivo; details: mouse, in vivo
Source text: (§1) The acute toxicity of the preparation according to the present invention has been studied on mice and rats.

[10] = test system: mice; assay: acute toxicity on mice; type: in vivo
Source text: as §1

[11] = acute toxicity on rats; details: rat, in vivo
Source text: as §1

[12] = patients with attendant hypertonic disease
[13] = intraperitoneal 200 mg/kg for 6 months and 1,000 mg/kg for 1 month
[14] = 50 mg/kg intravenously, cats and dogs

CN1C(=O)N(C)C2C1N(C)C(=O)N2C (stereo not shown) [the preparation, 2,4,6,8-tetramethyl-2,4,6,8-tetraazobicyclo-/3,3,0/-octanedione-3,7]
tension of vessels ([1]; heart, kidney and limbs): monodirectionally lowers tension of all vessels
resistance of coronary vessels versus peripheral vessels ([1]; in vivo): lowered to a greater extent than that of peripheral vessels
pressor responses caused by tetanic irritation of tibial nerve ([2]; 50 mg/kg): remain unchanged
tonic and reflectorial activity in sympathetic nerves ([2]; 50 mg/kg): does not noticeably change the character and intensity of tonic and reflectorial activity in sympathetic nerves
spontaneous activity and reflectorial responses ([2]; 50 mg/kg, in a certain number of the experiments): slight amplification of spontaneous activity and facilitation of reflectorial responses
C-responses of the reflectorial discharges ([2]; 250-500 mg/kg): suppressed
inhibiting component of the reflectorial response ([2]; 250-500 mg/kg): amplification of the inhibiting component of the reflectorial response
tonic activity in sympathetic nerves ([2]; 250-500 mg/kg): weakly inhibited
arterial pressure [3]: no substantial change of arterial pressure
colateral blood flow in deep (endocardial) layers of myocardium [3]: contributes to the development of the colateral blood flow in deep (endocardial) layers of myocardium
contractibility of myocardium (inotropic effect) [3]: positive inotropic effect; also recorded: increases contractibility of myocardium
frequency of heart contractions [3]: without affecting the frequency of heart contractions
functional state of the ischemic centre [3]: capable of improving functional state of the ischemic centre; also recorded: capable of improve the functional state of the ischemic centre
lactate in the blood outflowing from the ischemic zone [3]: lowering the content of lactate in the blood outflowing from the ischemic zone
sympathetic tonus of heart and vessels [3]: capable of inhibiting the sympathetic tonus of heart and vessels
vascular component of pain reactions [3]: capable of inhibiting the sympathetic tonus of heart and vessels, as well as vascular components of pain reactions; also recorded: suppresses the vascular component of pain reactions
volumetric rate of total coronary blood flow [3]: increases the volumetric rate of total coronary blood flow
potassium in plasma ([4]; after treatment, before 3.82±0.16): 3.45±0.08 mequiv/l
number of erythrocytes ([4]; after treatment, before 4.6±0.3): 5.3±0.3 mln in mm^3
content of total protein ([4]; after treatment, before 7.73±0.1%): 8.65±0.25%
content of lymphocytes ([4]; after treatment, before 26.9±1.2%): 31.0±2.8%
potassium in erythrocytes ([4]; after treatment, before 65.7±5.7): 80.2±5.2 mequiv/l
hemoglobin ([4]; after treatment, before 82.7±2.6%): 86.3±3.2%
cholesterol ([4]; after treatment, before 294.0±16.4%): 245±15.0 mg %
leucocytes ([4]; after treatment, before 5,520±499): 6,080±221 in mm^3
content of prothrombin ([4]; during the treatment course): not changed
content of sodium in erythrocytes and plasma ([4]; human, in vivo): not substantially changed
contraindications ([4]; human, in vivo): No contraindications against the administration of the preparation have been revealed
patients with good therapeutic effect ([4]; human, in vivo): 77 % of the patients
remaining fractions of proteinogram ([4]; human, in vivo): insignificant opposite-sign variations
side effects ([4]; human, in vivo): Side effects are absent
day at which amelioration of the condition was observed [4, 12]: 2 to 5 days
pulse [4, 12]: pulse normalization
minimal arterial pressure ([4]; patients with attendant hypertonic disease, after treatment, before 102.2±1.2): 89.7±4.0 mm Hg
maximum arterial pressure ([4]; patients with attendant hypertonic disease, after treatment, before 180.8±3.9): 161.4±3.8 mm Hg
electrogram ([4]; perorally 1.8-3.6 g daily): rhythm normalization
frequency and intensity of stenocardia attacks ([4]; perorally 1.8-3.6 g daily): reduced
metabolic processes ([4]; perorally 1.8-3.6 g daily): amelioration of metabolic processes
gamaglobulins ([4]; proteinogram, after treatment, before 19.87±1.83%): 22.54±2.31%
arterio-venous difference relative to oxygen [5]: lowering the arterio-venous difference relative to oxygen; also recorded: decrease in the arterio-venous difference relative to oxygen
content of oxyhemoglobin in coronary venous blood [5]: increased content of oxyhemoglobin in coronary venous blood
increase of coronary blood flow versus absorption of oxygen by myocardium [5]: surpasses the absorption of oxygen by myocardium
increase of coronary blood flow ([5]; 50 mg/kg intravenously, average): 32±5%
duration of coronary blood flow effect ([5]; 500 mg/kg): 30 to 40 min
increase of coronary blood flow ([5]; 500 mg/kg): 108±12%
increase of the amount of the heart-absorbed oxygen ([5]; calculated from arterio-venous difference): 29±2.3%
accumulation [6, 13]: not accumulated
effect on hematoplasty and urination [6, 13]: does not affect hematoplasty and urination
histological changes in the visceral organs ([6]; kidney, liver, spleen, heart and the like, intraperitoneal 200 mg/kg 6 months, 1,000 mg/kg 1 month): no pathological changes in the visceral organs
ischemic changes of epicardial electrograms in the zone of ischemia ([7]; 200 mg/kg, dogs): inhibited the development of ischemic changes of epicardial electrograms in the zone of ischemia
blood inflow into the ischemic zone (retrograde blood flow) ([7]; dogs): considerably increase the blood inflow into the ischemic zone
activity compared with nonachlazine (sum of pharmacological effects) ([7]; experimental model of acute myocardium ischemia): more active (as regards the sum of pharmacological effects) than the known preparation nonachlazine
arterial pressure reaction during the first 5 minutes [8, 14]: uncertain hypertensive reaction
effect on the systemic arterial pressure [8, 14]: no essential effect on the systemic arterial pressure
changes of the arterial pressure ([8]; 250 mg/kg, cats and dogs): opposite-sign changes of the arterial pressure mainly of hypotensive character
average value of the maximum drop of pressure ([8]; 250 mg/kg, first 10 minutes after administration, cats and dogs): 8-10 % of the initial level
duration of the hypotensive effect ([8]; 500 mg/kg, cats and dogs): 20 to 30 min
hypotensive reaction intensity ([8]; 500 mg/kg, cats and dogs): 15-18 % of the initial level
influence on the adrenoreactive structures of the vessels ([8]; dog, in vivo): does not influence the adrenoreactive structures of the vessels
depressor reactions on isoproterenol ([8]; isoproterenol 2.5 μg/kg): does not change the character
pressor reactions of arterial pressure on noradrenaline ([8]; noradrenaline 3 μg/kg): does not change the character
LD50 [9]: 3800 mg/kg
LD50 [10]: 3,800 mg/kg of the body weight
LD50 [11]: 3450 mg/kg
